In patent US11666558B2, “Methods of treating intraocular pressure with activators of Tie-2” (EyePoint Pharmaceuticals, Inc., priority 2015, dated 2023):

Experiments:
intraocular pressure = assay: Intraocular pressure change from baseline, Compound 1 BID at varying doses, 28 Day EOT (FIG. 1); format: in vivo, human; conditions: doses greater than 15 mg BID, patients with diabetic macular edema
Experimental: The difference in IOP was determined at the end of the trial, which was 28 days after treatment began (28 Day EOT). Changes in IOP were determined both in the study eye and the fellow eye.

[1] = In vitro diffusion across rabbit cornea and sclera in Franz cell; format: in vitro ADME; conditions: 1.5% of the sodium salt with 5% HPβCD in 50:50 D5W:sterile water

diffusion across rabbit cornea and sclera [1]: substantial diffusion
SMILES: COC(=O)N[C@@H](Cc1ccccc1)C(=O)N[C@@H](Cc1ccc(NS(=O)(=O)O)cc1)c1csc(-c2cccs2)n1 [Compound 1]
intraocular pressure (IOP) relative to pre-treatment baseline (intraocular pressure): decreased IOP
